Data published in ChEMBL document CHEMBL1201862, “PubChem BioAssay data set” (2004).
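A five-concentration, 48-hour dose response in 96-well plates underlies each endpoint, interpolated linearly between surrounding concentrations. GI50 = concentration required for 50% inhibition of growth.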 Active and inactive are the calls of the source. Cut-off read from the data, not from the text of the source: active = GI50 up to about 1.1 µM and inactive = higher.

What was measured:
Assay in all cases: growth of human tumour cells (NCI), 48 h
ACHN = system: ACHN
CCRF-CEM = system: CCRF-CEM
Malme-3M = system: Malme-3M
T47D = system: T47D
SK-MEL-28 = system: SK-MEL-28
M14 = system: M14
HOP-62 = system: HOP-62
PC-3 = system: PC-3
786-0 = system: 786-0
HT-29 = system: HT-29
HOP-92 = system: HOP-92
SF-268 = system: SF-268
HCT-116 = system: HCT-116
SR = system: SR
SK-OV-3 = system: SK-OV-3
MDA-N = system: MDA-N
SK-MEL-5 = system: SK-MEL-5
MDA-MB-231 = system: MDA-MB-231
HL-60 = system: HL-60
CAKI-1 = system: CAKI-1

SMILES | GI50 (ACHN) | GI50 (CCRF-CEM) | GI50 (Malme-3M) | GI50 (T47D) | GI50 (SK-MEL-28) | GI50 (M14) | GI50 (HOP-62) | GI50 (PC-3) | GI50 (786-0) | GI50 (HT-29) | GI50 (HOP-92) | GI50 (SF-268) | GI50 (HCT-116) | GI50 (SR) | GI50 (SK-OV-3) | GI50 (MDA-N) | GI50 (SK-MEL-5) | GI50 (MDA-MB-231) | GI50 (HL-60) | GI50 (CAKI-1)
CC1=N[C@](C)(C2CC3C=CC2C3=O)COC1=O (stereo not given in full) | > 100 µM (inactive) | > 100 µM (inactive) | > 100 µM (inactive) | > 100 µM (inactive) | > 100 µM (inactive) | > 100 µM (inactive) | > 100 µM (inactive) | > 100 µM (inactive) | > 100 µM (inactive) | > 100 µM (inactive) | > 100 µM (inactive) | > 100 µM (inactive) | > 100 µM (inactive) | > 100 µM (inactive) | > 100 µM (inactive) | > 100 µM (inactive) | > 100 µM (inactive) | > 100 µM (inactive) | > 100 µM (inactive) | > 100 µM (inactive)
COc1ccc2nc3cccc([N+](=O)[O-])c3c(NCCC(=O)O)c2c1 | > 10 µM (inactive) | 6.67 µM (inactive) | 4.51 µM (inactive) | 7.5 µM (inactive) | > 10 µM (inactive) | > 10 µM (inactive) | > 10 µM (inactive) | > 10 µM (inactive) | > 10 µM (inactive) | > 10 µM (inactive) | > 10 µM (inactive) | > 10 µM (inactive) | > 10 µM (inactive) | > 10 µM (inactive) | > 10 µM (inactive) | > 10 µM (inactive) | > 10 µM (inactive) | > 10 µM (inactive) | > 10 µM (inactive) | > 10 µM (inactive)
COc1cc(CNCc2cc(OC)c(OC)c(OC)c2)cc(OC)c1OC | > 10 µM (inactive) | 2.37 µM (inactive) | > 10 µM (inactive) | > 10 µM (inactive) | > 10 µM (inactive) | > 10 µM (inactive) | > 10 µM (inactive) | > 10 µM (inactive) | > 10 µM (inactive) | > 10 µM (inactive) | > 6.07 µM (inactive) | > 10 µM (inactive) | > 10 µM (inactive) | > 5.38 µM (inactive) | > 10 µM (inactive) | > 10 µM (inactive) | > 10 µM (inactive) | > 10 µM (inactive) | > 4.62 µM (inactive) | > 10 µM (inactive)
N#CC1(C#N)C(C#N)(C#N)C1(C#N)C(N)=O | > 100 µM (inactive) | > 100 µM (inactive) | > 100 µM (inactive) | > 100 µM (inactive) | > 100 µM (inactive) | > 100 µM (inactive) | > 100 µM (inactive) | > 100 µM (inactive) | > 100 µM (inactive) | > 100 µM (inactive) | > 100 µM (inactive) | > 100 µM (inactive) | > 100 µM (inactive) | > 100 µM (inactive) | > 100 µM (inactive) | > 100 µM (inactive) | > 100 µM (inactive) | > 100 µM (inactive) | > 100 µM (inactive) | > 100 µM (inactive)
O=C1c2cccc3cc4ccccc4c(c23)C(=O)N1CCCNCCNCCCN1C(=O)c2cccc3cc4ccccc4c(c23)C1=O | < 0.0227 µM (active) | < 0.01 µM (active) | 0.211 µM (active) | 0.421 µM (active) | 0.239 µM (active) | 0.177 µM (active) | 0.0203 µM (active) | 0.152 µM (active) | 0.02 µM (active) | 0.0104 µM (active) | 1 µM (active) | 0.196 µM (active) | < 0.0191 µM (active) | < 0.01 µM (active) | 0.31 µM (active) | 0.0546 µM (active) | 0.128 µM (active) | 0.189 µM (active) | < 0.0171 µM (active) | 0.141 µM (active)
Cc1nc2[nH]ccn2c(=O)c1CCCl | 23.1 µM (inactive) | 18 µM (inactive) | 25.6 µM (inactive) | 91 µM (inactive) | 30.1 µM (inactive) | 31.8 µM (inactive) | 23.6 µM (inactive) | 49.7 µM (inactive) | 25.5 µM (inactive) | 33.7 µM (inactive) | 21.4 µM (inactive) | 36.4 µM (inactive) | 17 µM (inactive) | 24.2 µM (inactive) | 26.5 µM (inactive) | 21.9 µM (inactive) | 17.1 µM (inactive) | 38.7 µM (inactive) | 25.4 µM (inactive) | > 10 µM (inactive)
CCOC(C/N=c1/nc(N(C)C)ss1)OCC | 26.2 µM (inactive) | 0.208 µM (active) | 7.71 µM (inactive) | 23.4 µM (inactive) | 21.5 µM (inactive) | 16.9 µM (inactive) | 65.6 µM (inactive) | 14.3 µM (inactive) | 17.7 µM (inactive) | 0.135 µM (active) | 18.4 µM (inactive) | 30.1 µM (inactive) | 14.9 µM (inactive) | 1.48 µM (inactive) | > 100 µM (inactive) | 3.56 µM (inactive) | 0.832 µM (active) | 15.5 µM (inactive) | 1.31 µM (inactive) | 22.6 µM (inactive)
CCOC(=O)Nc1cc2ccccc2c(/N=N/c2ccccc2)c1O | > 100 µM (inactive) | > 100 µM (inactive) | 55.6 µM (inactive) | 91.4 µM (inactive) | > 100 µM (inactive) | > 100 µM (inactive) | 27.9 µM (inactive) | > 100 µM (inactive) | 34.8 µM (inactive) | > 100 µM (inactive) | 88.7 µM (inactive) | 58.2 µM (inactive) | > 100 µM (inactive) | > 100 µM (inactive) | 17.2 µM (inactive) | > 100 µM (inactive) | > 100 µM (inactive) | > 100 µM (inactive) | > 100 µM (inactive) | 75.3 µM (inactive)
CC(=O)n1cc(C2CC23N=C(c2ccccc2)OC3=O)c2ccccc21 (stereo not given) | 17.7 µM (inactive) | 1.12 µM (inactive) | 20.6 µM (inactive) | 34.9 µM (inactive) | 19.7 µM (inactive) | 16.2 µM (inactive) | 21.4 µM (inactive) | 17.8 µM (inactive) | 14.8 µM (inactive) | 17.9 µM (inactive) | 22.1 µM (inactive) | 18.3 µM (inactive) | 14.4 µM (inactive) | 10.6 µM (inactive) | 49.9 µM (inactive) | 23.9 µM (inactive) | 17.1 µM (inactive) | 20.8 µM (inactive) | 2.04 µM (inactive) | 15.8 µM (inactive)
CCCCCCCCCCCCCCCC(=O)Nc1ccn(C2OC(CO)C(O)C2O)c(=O)n1 (stereo not given) | 3.08 µM (inactive) | 0.0308 µM (active) | 4.22 µM (inactive) | 30.1 µM (inactive) | 41.9 µM (inactive) | 3.21 µM (inactive) | 0.887 µM (active) | 3.78 µM (inactive) | 4.01 µM (inactive) | 25.7 µM (inactive) | 16.6 µM (inactive) | 15.2 µM (inactive) | 1.21 µM (inactive) | 0.6 µM (active) | 16.7 µM (inactive) | 30.3 µM (inactive) | 29.9 µM (inactive) | > 62.8 µM (inactive) | 2.77 µM (inactive) | 28.7 µM (inactive)
